From patent EP2472259B1, “Specific molecules clinging to a lure” (Forschungszentrum Jülich GmbH, priority 2006, dated 2014)

What was measured:
Experiment in all cases: anti-phage ELISA, relative SH3 binding activity of phage clones
Lyn-SH3 = conditions: phage-displayed peptide, Fig. 2f; binding to Lyn-SH3 compared with Lck-SH3
Excerpt: (§1) "anti-Phage-ELISA" - Bestimmung der relativen SH3-Bindungsaktivität einzelner Phagenklone
(§2) Dieser Bindungstest ist ein häufig verwendeter Test zur schnellen Bestimmung relativer Bindungsstärken selektierter Peptide, die hierbei noch physikalisch mit dem Phagen verknüpft vorliegen. Dieser Schritt dient auch zur Eliminierung von (bei dieser Methode nicht selten auftretenden) Phagenvarianten, die z. B. aufgrund ihrer Affinität zur Plastikoberfläche der verwendeten Mikrotiterplatten, angereichert werden und die somit zur Verfälschung der Ergebnisse führen können. Eine grundsätzliche Beschreibung der Methode findet sich z. B. unter Sparks et al. Methods Enzymol. 1995; 255:498-509.
(§3) GST-SH3 Protein wurde in einer Konzentration von 1-10 µg/ml in Tris-Bis über Nacht bei 4°C in Mikrotiterplatten immobilisiert. Verbleibende Bindungsstellen wurden durch 2-stündige Inkubation mit Blockierungspuffer (Bis-Tris mit 2 % Magermilchpulver) abgesättigt. In einer anderen Mikrotiterplatte wurden zuerst je 100 µl Suspension der zu testenden Phagenvariante mit 100 µl Blockierungspuffer für 20 Minuten vorinkubiert und erst dann für 1 Stunde zum immobilisierten GST-SH3 Protein gegeben. Nach einem Waschschritt mit Bis-Tris wurde ein Meerrettich-Peroxidase-konjugierter Antikörper zugegeben und die Platten für eine weitere Stunde inkubiert. […]

Hck-SH3 = conditions: phage-displayed peptide, Fig. 2f; binding to Hck-SH3 compared with Lck-SH3
Excerpt: as §1, §2, §3

Lck-SH3 = system: Lck-SH3; design: species or system menschlichen; conditions: phage-displayed peptide, Fig. 2f; binding to Lck-SH3 compared with other SH3 domains
Excerpt: as §1, §2, §3

HSKYPLPPLPSL [PD1, control peptide from standard selection with Lck-SH3 as bait]
relative SH3-Bindungsaktivität (Lyn-SH3): ähnlich gut
relative SH3-Bindungsaktivität (Hck-SH3): ähnlich gut
relative SH3-Bindungsaktivität (Lck-SH3): nicht die stärkste Bindung
